From patent publication US20020182112A1, “In vivo method for measuring binding of chemical actives to skin or specific constituents of skin” (Unilever Home & Personal Care USA, Division of Conopco, Inc., priority 2001, published 2002)

Target: Bovine Serum Albumim (BSA) (Bos taurus, UniProt P02769)
Assay: Pyranine fluorescence in BSA solution: replacement of pyranine from BSA binding sites by added surfactant
Settings: for ratio of the fluorescence intensities 509 nm / 426 nm: no surfactant; for ratio of the fluorescence intensities from the deprotonated and protonated state (509 nm / 426 nm): pyranine 1.0×10^−8 M in 50 mM Hepes buffer pH 6.7, BSA 2.5 mg/ml, surfactant added at weight fraction 4×10^−5
Experimental: Fluorescence spectra of pyranine in solutions and on skin were obtained using a Perkin Elmer LS50B fluorometer. In the case of spectra taken on skin, the fiber optic probe accessory was used.
All spectra were taken at pyranine concentrations of 1.0×10^−8 M in 50 mM Hepes buffer (aqueous buffer solution with pH 6.7). Bovine Serum Albumim (BSA) concentrations were 2.5 mg/ml. Surfactant was added at weight fractions of 4×10^−5.
In order to test the applicability of pyranine fluorescence to monitor the binding of surfactants to proteins, applicants studied the effect of added surfactant on the fluorescence spectrum of aqueous solutions of pyranine and BSA. […] This effect can be explained by the replacement of pyranine molecules bound to BSA by SDS molecules leading to an increased concentration of pyranine in free solution and therefore a relative increase in intensity of the fluorescence from the deprotonated state. The ratio of the fluorescence intensities from the deprotonated and protonated site is a measure of the ability of a surfactant to replace pyranine from BSA binding sites.

Bovine Serum Albumim (BSA), sequence (P02769 25-607): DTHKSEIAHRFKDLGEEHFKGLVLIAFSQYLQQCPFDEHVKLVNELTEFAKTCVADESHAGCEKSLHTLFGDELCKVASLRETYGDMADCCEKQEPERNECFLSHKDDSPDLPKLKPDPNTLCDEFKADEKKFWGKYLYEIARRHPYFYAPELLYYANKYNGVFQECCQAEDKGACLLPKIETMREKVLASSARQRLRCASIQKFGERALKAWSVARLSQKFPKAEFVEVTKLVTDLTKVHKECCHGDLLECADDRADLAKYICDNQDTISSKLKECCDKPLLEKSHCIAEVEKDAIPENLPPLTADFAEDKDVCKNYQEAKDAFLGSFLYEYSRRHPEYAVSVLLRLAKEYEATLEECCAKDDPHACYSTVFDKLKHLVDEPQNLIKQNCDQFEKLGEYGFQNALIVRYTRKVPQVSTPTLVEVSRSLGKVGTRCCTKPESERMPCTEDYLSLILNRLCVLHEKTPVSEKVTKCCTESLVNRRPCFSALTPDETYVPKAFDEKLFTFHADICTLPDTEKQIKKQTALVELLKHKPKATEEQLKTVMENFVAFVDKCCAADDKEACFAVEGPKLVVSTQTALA

| Molecule | ratio of the fluorescence intensities from the deprotonated and protonated state (509 nm / 426 nm) | other results |
| --- | --- | --- |
| O=S(=O)(O)c1cc(O)c2ccc3c(S(=O)(=O)O)cc(S(=O)(=O)O)c4ccc1c2c34 [Pyranine, 8-hydroxyl-1 ,3,6-pyrene-trisulfonic acid] | – | ratio of the fluorescence intensities 509 nm / 426 nm (pyranine 1.0×10^−8 M in 50 mM Hepes buffer pH 6.7, no BSA): 8.03; ratio of the fluorescence intensities 509 nm / 426 nm (pyranine 1.0×10^−8 M in 50 mM Hepes buffer pH 6.7 with BSA 2.5 mg/ml): 1.17 |
| CCCCCCCCCCCCOS(=O)(=O)[O-].[Na+] [SDS, sodium dodecyl sulphate] | 2.23 | effect of added surfactant on the fluorescence spectrum of pyranine and BSA (FIG. 2) (50 mM Hepes buffer, 2.5 mg/ml BSA, 4×10^−5 weight fraction SDS): significant increase of the relative intensity of the fluorescence from the deprotonated state |
| Cocamilopropyl Betaine | 1.56 | – |
| alkylpolyglycoside [APG] | 1.34 | – |

The next lines start with results.

| ratio of the fluorescence intensities from the deprotonated and protonated state (509 nm / 426 nm) | Molecule | other results |
| --- | --- | --- |
| 2.13 | CCCCCCCCCCCC(=O)[O-].[Na+] [Sodium Laurate] | – |
| 2.12 | Sodiumlauryl Ether Sulfate | – |
